Drawing on patent US9474790B2, “Stable, protracted GLP-1/glucagon receptor co-agonists for medical use” (Novo Nordisk A/S, priority 2013, dated 2016), this text covers IC50 for four molecules.

A word on the IC50: it is the concentration that gives 50% inhibition.

This experiment deals with T1, human GLP-1 receptor (Homo sapiens, UniProt P43220).
T1 construct: expressed in transfected cells; host or cells: BHK cells (parent BHKTS13), clone FCW467-12A/KZ10-1, with CRE luciferase
Put plainly: GLP-1 receptor binding, 125I-GLP-1 displacement SPA on isolated membranes. The conditions noted are these: displacement of 125I-GLP-1 from membranes; read-out: IC50 GLP-1R. The essentials: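 Test derivatives, serially diluted, competed with 125I-GLP-1(7-36)NH2 for the human GLP-1 receptor on BHK membranes, read by WGA-bead scintillation proximity after 2 h at 30°C, pH 7.4 HEPES/EGTA/MgCl2 buffer. Final serum albumin was either ≤0.001% or 2.0%; IC50 from non-linear fit.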
(In a radioligand displacement assay an active substance lowers the binding of a labelled ligand.)

Numbered stars: 1 amine (or outer) side, 2 acyl side, 3 side chain; on linkers, the order of the positions; unused ones are H or OH. Square brackets hold non-standard residues; d marks the D form. Side chains are listed from the residue outwards. Peptide text beside a SMILES is read from it. * marks the point of attachment. C18 diacid = O=C(O)CCCCCCCCCCCCCCCCC(=O)*; γGlu = O=C(O)[C@H](CCC(=O)[*:2])N[*:1]; AEEA = NCCOCCOCC(=O)O; Aib = CC(C)(N)C(=O)O

T1 sequence (P43220 24-463): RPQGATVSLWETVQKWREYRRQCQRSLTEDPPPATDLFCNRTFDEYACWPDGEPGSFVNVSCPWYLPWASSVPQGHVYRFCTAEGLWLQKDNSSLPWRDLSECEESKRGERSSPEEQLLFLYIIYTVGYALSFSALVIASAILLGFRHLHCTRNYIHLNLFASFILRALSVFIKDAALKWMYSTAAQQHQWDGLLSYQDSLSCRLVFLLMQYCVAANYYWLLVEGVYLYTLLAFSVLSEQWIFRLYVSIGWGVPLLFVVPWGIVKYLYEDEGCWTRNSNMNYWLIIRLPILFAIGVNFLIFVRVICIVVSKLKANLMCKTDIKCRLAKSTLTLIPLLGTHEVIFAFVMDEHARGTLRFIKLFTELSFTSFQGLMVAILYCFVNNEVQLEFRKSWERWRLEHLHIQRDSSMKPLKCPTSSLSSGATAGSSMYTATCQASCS

On to `CC(C)C[C@H](NC(=O)[C@H](Cc1ccc(O)cc1)NC(=O)[C@H](CCCCN)NC(=O)[C@H](CO)NC(=O)[C@H](CC(C)C)NC(=O)[C@H](CC(=O)O)NC(=O)[C@H](CO)NC(=O)[C@@H](NC(=O)[C@H](Cc1ccccc1)NC(=O)[C@@H](NC(=O)CNC(=O)[C@H](Cc1c[nH]cn1)NC(=O)C(C)(C)NC(=O)[C@@H](N)Cc1c[nH]cn1)[C@@H](C)O)[C@@H](C)O)C(=O)N[C@@H](CCC(=O)O)C(=O)N[C@@H](CO)C(=O)N[C@@H](CCCCN)C(=O)N[C@@H](CCCNC(=N)N)C(=O)N[C@@H](C)C(=O)N[C@@H](CCCNC(=N)N)C(=O)N[C@@H](CCC(=O)O)C(=O)N[C@@H](Cc1ccccc1)C(=O)N[C@H](C(=O)N[C@@H](CCC(N)=O)C(=O)N[C@@H](Cc1c[nH]c2ccccc12)C(=O)N[C@@H](CC(C)C)C(=O)N[C@@H](CC(C)C)C(=O)N[C@@H](CCCCNC(=O)CC[C@H](NC(=O)CC[C@H](NC(=O)COCCOCCNC(=O)COCCOCCNC(=O)CC[C@H](NC(=O)CCCCCCCCCCCCCCCCC(=O)O)C(=O)O)C(=O)O)C(=O)O)C(=O)N[C@H](C(N)=O)[C@@H](C)O)C(C)C` [Example 27, N^ε28-[(4S)-4-carboxy-4-[[(4S)-4-carboxy-4-[[2-[2-[2-[[2-[2-[2-[[(4S)-4-carboxy-4-(17-carboxyheptadecanoylamino)butanoyl]amino]ethoxy]ethoxy]acetyl]amino]ethoxy]ethoxy]acetyl]amino]butanoyl]amino]butanoyl]-[Aib2,His3,Leu10,Glu15,Lys17,Arg20,Glu21,Leu27, Lys28]-Glucagon amide] (H-H[Aib]HGTFTSDLSKYLESKRAREFVQWLLK([γGlu-γGlu-AEEA-AEEA-γGlu-C18 diacid])T-NH2; N-terminus assumed), for which the IC50 came out at 0.9 nM.

In the case of `CC(C)C[C@H](NC(=O)[C@H](Cc1ccc(O)cc1)NC(=O)[C@H](CCCCN)NC(=O)[C@H](CO)NC(=O)[C@H](CC(C)C)NC(=O)[C@H](CC(=O)O)NC(=O)[C@H](CO)NC(=O)[C@@H](NC(=O)[C@H](Cc1ccccc1)NC(=O)[C@@H](NC(=O)CNC(=O)[C@H](Cc1c[nH]cn1)NC(=O)C(C)(C)NC(=O)[C@@H](N)Cc1c[nH]cn1)[C@@H](C)O)[C@@H](C)O)C(=O)N[C@@H](CCC(=O)O)C(=O)N[C@@H](CO)C(=O)N[C@@H](CCCNC(=N)N)C(=O)N[C@@H](CCCNC(=N)N)C(=O)N[C@@H](C)C(=O)N[C@@H](CCCNC(=N)N)C(=O)N[C@@H](CCC(=O)O)C(=O)N[C@@H](Cc1ccccc1)C(=O)N[C@H](C(=O)N[C@@H](CCC(N)=O)C(=O)N[C@@H](Cc1c[nH]c2ccccc12)C(=O)N[C@@H](CC(C)C)C(=O)N[C@@H](CC(C)C)C(=O)N[C@@H](CCCCNC(=O)CC[C@H](NC(=O)COCCOCCNC(=O)COCCOCCNC(=O)CC[C@H](NC(=O)CC[C@H](NC(=O)CCCCCCCCCCCCCCCCC(=O)O)C(=O)O)C(=O)O)C(=O)O)C(=O)N[C@H](C(N)=O)[C@@H](C)O)C(C)C` [Example 30, N^ε28-[(4S)-4-carboxy-4-[[2-[2-[2-[[2-[2-[2-[[(4S)-4-carboxy-4-[[(4S)-4-carboxy-4-(17-carboxyheptadecanoylamino)butanoyl]amino]butanoyl]amino]ethoxy]ethoxy]acetyl]amino]ethoxy]ethoxy]acetyl]amino]butanoyl]-[Aib2,His3,Leu10,Glu15,Arg20,Glu21,Leu27,Lys28]-Glucagon amide] (H-H[Aib]HGTFTSDLSKYLESRRAREFVQWLLK([γGlu-AEEA-AEEA-γGlu-γGlu-C18 diacid])T-NH2; N-terminus assumed), the IC50 came to 1.4 nM.

For the molecule `CC(C)C[C@H](NC(=O)[C@H](Cc1c[nH]c2ccccc12)NC(=O)[C@H](C)NC(=O)[C@@H](NC(=O)[C@H](Cc1ccccc1)NC(=O)[C@H](CCC(=O)O)NC(=O)[C@H](CCCNC(=N)N)NC(=O)[C@H](C)NC(=O)[C@H](CCCNC(=N)N)NC(=O)[C@H](CCCNC(=N)N)NC(=O)[C@H](CO)NC(=O)[C@H](CCC(=O)O)NC(=O)[C@H](CC(C)C)NC(=O)[C@H](Cc1ccc(O)cc1)NC(=O)[C@H](CCCCN)NC(=O)[C@H](CO)NC(=O)[C@H](CC(C)C)NC(=O)[C@H](CC(=O)O)NC(=O)[C@H](CO)NC(=O)[C@@H](NC(=O)[C@H](Cc1ccccc1)NC(=O)[C@@H](NC(=O)CNC(=O)[C@H](Cc1c[nH]cn1)NC(=O)C(C)(C)NC(=O)[C@@H](N)Cc1c[nH]cn1)[C@@H](C)O)[C@@H](C)O)C(C)C)C(=O)N[C@@H](CC(C)C)C(=O)N[C@@H](CCCCNC(=O)CC[C@H](NC(=O)COCCOCCNC(=O)COCCOCCNC(=O)CC[C@H](NC(=O)CC[C@H](NC(=O)CCCCCCCCCCCCCCCCC(=O)O)C(=O)O)C(=O)O)C(=O)O)C(=O)N[C@H](C(N)=O)[C@@H](C)O` [Example 31, N^ε28-[(4S)-4-carboxy-4-[[2-[2-[2-[[2-[2-[2-[[(4S)-4-carboxy-4-[[(4S)-4-carboxy-4-(17-carboxyheptadecanoylamino)butanoyl]amino]butanoyl]amino]ethoxy]ethoxy]acetyl]amino]ethoxy]ethoxy]acetyl]amino]butanoyl]-[Aib2,His3,Leu10,Glu15,Arg20,Glu21,Ala24,Leu27, Lys28]-Glucagon amide] (H-H[Aib]HGTFTSDLSKYLESRRAREFVAWLLK([γGlu-AEEA-AEEA-γGlu-γGlu-C18 diacid])T-NH2; N-terminus assumed), the half-maximal inhibitory concentration (IC50) came to 1.5 nM.

On to `CC(C)C[C@H](NC(=O)[C@H](Cc1ccc(O)cc1)NC(=O)[C@H](CCCCN)NC(=O)[C@H](CO)NC(=O)[C@H](CC(C)C)NC(=O)[C@H](CC(=O)O)NC(=O)[C@H](CO)NC(=O)[C@@H](NC(=O)[C@H](Cc1ccccc1)NC(=O)[C@@H](NC(=O)CNC(=O)[C@H](Cc1c[nH]cn1)NC(=O)C(C)(C)NC(=O)[C@@H](N)Cc1c[nH]cn1)[C@@H](C)O)[C@@H](C)O)C(=O)N[C@@H](CCC(=O)O)C(=O)N[C@@H](CO)C(=O)N[C@@H](CCCNC(=N)N)C(=O)N[C@@H](CCCNC(=N)N)C(=O)N[C@@H](C)C(=O)N[C@@H](CCCNC(=N)N)C(=O)N[C@@H](CCC(=O)O)C(=O)N[C@@H](Cc1ccccc1)C(=O)N[C@H](C(=O)N[C@@H](CCC(N)=O)C(=O)N[C@@H](Cc1c[nH]c2ccccc12)C(=O)N[C@@H](CC(C)C)C(=O)N[C@@H](CC(C)C)C(=O)N[C@@H](CCCCNC(=O)CC[C@H](NC(=O)CC[C@H](NC(=O)COCCOCCNC(=O)COCCOCCNC(=O)CC[C@H](NC(=O)CCCCCCCCCCCCCCCCC(=O)O)C(=O)O)C(=O)O)C(=O)O)C(=O)N[C@H](C(N)=O)[C@@H](C)O)C(C)C` [Example 33, N^ε28-[(4S)-4-carboxy-4-[[(4S)-4-carboxy-4-[[2-[2-[2-[[2-[2-[2-[[(4S)-4-carboxy-4-(17-carboxyheptadecanoylamino)butanoyl]amino]ethoxy]ethoxy]acetyl]amino]ethoxy]ethoxy]acetyl]amino]butanoyl]amino]butanoyl]-[Aib2,His3,Leu10,Glu15,Arg20,Glu21,Leu27,Lys28]-Glucagon amide] (H-H[Aib]HGTFTSDLSKYLESRRAREFVQWLLK([γGlu-γGlu-AEEA-AEEA-γGlu-C18 diacid])T-NH2; N-terminus assumed), for which the IC50 was found to be 0.6 nM.
